Experimental data published in US7033996B2, “Method for the treatment of vitamin D related disease” (University of Medicine & Dentistry of New Jersey, priority 2001, dated 2006).
Entries after “also recorded” stand apart in the source; their conditions may differ.

Experiments:
[1] = test system: C/EBPβ; experiment: Northern analysis verifying C/EBPβ induction in kidney and osteoblastic cells; format: cell-based
[2] = test system: 24(OH)ase mRNA; experiment: Time course of mRNA induction by Northern blot in UMR osteoblastic cells; format: cell-based; details: time course 0–24 h
[3] = test system: C/EBPβ mRNA; experiment: as above; format: cell-based; details: time course 0–24 h
[4] = test system: C/EBPβ protein; experiment: Western blot of C/EBPβ protein in primary murine osteoblasts; format: cell-based
Text: Induction of C/EBPβ protein is examined by Western blot using nuclear extracts (antibody from Santa Cruz).

[5] = test system: hVDR promoter; experiment: PKA mediated hVDR promoter (-1500/+60) luciferase transcription with cotransfected C/EBPβ; format: cell-based, human; details: JEG cells, 2 μg VDR promoter, 1 μg PKA expression vector, 5 μg C/EBPβ
Method: FIG. 2 is an illustration of C/EBPβ enhancement of PKA mediated transcriptional activation of hVDR. 2 μg of the VDR promoter (−1500/+60) cotransfected in JEG cells with 1 μg of PKA expression vector in the presence or absence of 5 μg C/EBPβ.
cAMP or PTH induced enhancement of 24(OH)ase transcription is due at least in part to an upregulation of VDR. Since two putative C/EBPβ sites have been reported in the hVDR promoter (at −1490 and at −920; 143) the determination of the effect of C/EBPβ on VDR promoter activity is important. We have isolated the hVDR promoter fragment −1500/+60 by PCR and ligated it into the PGL-2 luciferase vector and found in our studies that C/EBPβ enhances PKA mediated transcription of the VDR (FIG. 2).

[6] = test system: rat 24(OH)ase promoter; experiment: 1,25(OH)2D3 induced 24(OH)ase promoter transcription with cotransfected C/EBPβ; details: COS cells cotransfected with hVDR and C/EBPβ, 1,25(OH)2D3 for 24 h

| effect of C/EBPβ on PKA mediated transcription of the VDR [5] | Molecule | induction of C/EBPβ by Northern analysis [1] | first significant induction of 24(OH)ase mRNA after treatment [2] | first significant induction of C/EBPβ mRNA after treatment [3] | induction of C/EBPβ protein by Western blot [4] | effect of C/EBPβ on 1,25(OH)2D3 induced 24(OH)ase transcription [6] |
| --- | --- | --- | --- | --- | --- | --- |
|  | C=C1/C(=C\C=C2/CCC[C@]3(C)[C@@H]([C@H](C)CCCC(C)(C)O)CC[C@@H]23)C[C@@H](O)C[C@@H]1O [1,25(OH)2D3, 1,25-dihydroxyvitamin D3] | induction | 9 h | 3 h | induction |  |
| enhances | C/EBPβ: CCAATT enhancer binding protein β, a transcription factor, supplied by pMEX C/EBPβ expression vector (protein, listed as Homo sapiens) APAPAPASSGQHHDFLSDLFSDDYGGKNCKKPAEYGYVSLGRLGAAKGAHPPPPPPPPPAELKAEPGFEPADCKRKEEAGAPGGGAGMAAGFPYALRAGSSGSLSTSSSSSPPGTPSPADAKAPPTACYAGAGPAPSQVKSKAKKTVRRERNNIAVRKSRDKAKMRNLETQHKVLELTAENERLQKKVEQLSRELSPEPLLASSGHC |  |  |  |  | markedly enhanced; also recorded: enhanced transcriptional response |
